Experimental data reported in ChEMBL document CHEMBL4665915, “Evaluation of a Series of Lipidated Tucaresol Adjuvants in a Hepatitis C Virus Vaccine Model” (2020).
Calls of active or inactive are those of the source. No cut-off for these calls is given here.

What was measured:
[1] = species: Mus musculus; test: Immuno-adjuvant activity in E2deltaTM3-immunized BALB/cj mouse assessed as neutralization of HCV H77 genotype 1a pseudotyped virus particle with pooled immune sera at 1 ug/ml; format: functional; details: dose 1 µg/ml
[2] = system: Mus musculus; test: Immuno-adjuvant activity in E2deltaTM3-immunized BALB/cj mouse assessed as potentiation of antibody response to E1E2 by measuring increase in serum anti-E1E2 IgG level administered subcutaneously as prime injection at 200 ug and 800 ug compound split over the remaining four days to give final dose of 1 mg followed by booster injection at four week intervals on day 28, 56 and 84 and measured at […] post-booster injection on days 34, 62 and 90 by ELISA; format: functional, organism-based

`O=Cc1c(O)cccc1OCc1ccc(C(=O)O)cc1` [TUCARESOL] gave an Activity [1] of 61%.

`CCCCCCCCCCCCCCCCOc1ccc(O)c(O)c1C=O` was tested, and the Activity [2] was “Active” and the Activity [1] was 71%.

In the case of `CCCCCCCCCCCCCCCCOc1cc(O)ccc1C=O`, the Activity [2] is reported as “Active” and the Activity [1] is reported as 78%.

For `CCCCCCCCCCCCCCCCOc1cccc(O)c1C=O`, the Activity [2] was “Active” and the Activity [1] was 59%.
